Key:
[1] = system: native glucose oxidase (GOx); experiment: Activity assay, HRP-coupled oxidation rate of TMB with D-gluocose; format: biochemical
Procedure: (§5) The activity of native GOx, pMPC-nGOx, native AOx, and pMPC-nAOx were determined with a similar method. Briefly, the initial reaction rates were determined by monitoring the oxidation rates of TMB of GOx and AOx when incubating with the assay solutions with different concentrations of substrates, respectively. For native GOx and pMPC-nGOx, the assay solutions were prepared by mixing TMB (0.5 mM), native HRP (0.001 mg/mL), and different amount of D-gluocose (0.005%, 0.010%, 0.015%, 0.020%, 0.030%, 0.040%, w/v) in 0.1 M phosphate buffer (pH 7.0). […] The measurements were achieved by monitoring the A655 of the reaction solutions during the incubation of 1 μL of native enzyme or pMPC-nProtein (0.5 mg/mL for native GOx and pMPC-nGOx, 1 mg/mL for native AOx and pMPC-nAOx) with their corresponding assay solution.

[2] = system: pMPC-nGOx (glucose oxidase encapsulated in a pMPC nanocapsule); experiment: as above; format: biochemical
Procedure: as §5

[3] = system: pMPC-nHRP (horseradish peroxidase encapsulated in a pMPC nanocapsule)
Description: (§1) To verify this, four enzymes, including horseradish peroxidase (HRP), glucose oxidase (GOx), uricase (UOx), and alcohol oxidase (AOx), were encapsulated with the same method, and their enzymatic activities were compared with their native counterparts, respectively.
(§2) After acryloxylation, protein was encapsulated with pMPC using a in situ polymerization method. For the polymerization, 2-Methacryloyloxyethyl phosphorylcholine (MPC) and bis-methacrylamide (BIS) were first prepared as 10% (w/v) stock solution in DI-water and anhydrous DMSO, respectively. The final protein concentration was tuned to 1 mg/mL by diluting with phosphate buffer (50 mM, pH 7.0). Polymerization was initiated by the addition of ammonium persulfate (APS) and tetramethylethylenediamine (TEMED) and kept at room temperature for 2 h. After the polymerization, the solution was dialyzed against PBS to remove unreacted monomers and by-products. The detailed synthesis parameters of pMPC-nEGFP, pMPC-nOVA, pMPC-nHRP, pMPC-nGOx, pMPC-nUOx, pMPC-nAOx, pMPC-nTf, and pMPC-nBSA were listed in Table 5.
(§3) The activity of pMPC-nHRP and native HRP were determined by monitoring the oxidation rate of 3,3′,5,5′-tetramethylbenzidine (TMB) using hydrogen peroxide (H2O2) as the substrate. Briefly, a series of H2O2 stock solutions with concentrations of 0.001%, 0.002%, 0.003%, 0.004%, 0.006%, 0.008% (w/v) was prepared by diluting a 50% H2O2 (w/v) with 0.1 M acetate buffer (pH 5.01) with 0.5 mM TMB. After mixing 1 mL of the substrate solution with 1 μL of pMPC-nHRP (0.1 mg/mL) or native HRP, the absorbance at 655 nm (A655) of the reaction solution was monitored with a UV-Vis spectrometer for 3 min. The absorption curve was plotted versus time and ΔA655/min from the linear portion of the curve was calculated. The activity assays were repeated with a series of concentrations of substrate to get the catalytic rates to obtain KM^app and kcat^app by the Lineweaver—Burk plot.

[4] = molecular target: T1, native horseradish peroxidase (HRP) (Armoracia rusticana, UniProt P00433); experiment: Activity assay, oxidation rate of TMB with H2O2 as substrate; format: biochemical
T1 construct: H2O2 substrate with TMB
T1 sequence (P00433 31-338): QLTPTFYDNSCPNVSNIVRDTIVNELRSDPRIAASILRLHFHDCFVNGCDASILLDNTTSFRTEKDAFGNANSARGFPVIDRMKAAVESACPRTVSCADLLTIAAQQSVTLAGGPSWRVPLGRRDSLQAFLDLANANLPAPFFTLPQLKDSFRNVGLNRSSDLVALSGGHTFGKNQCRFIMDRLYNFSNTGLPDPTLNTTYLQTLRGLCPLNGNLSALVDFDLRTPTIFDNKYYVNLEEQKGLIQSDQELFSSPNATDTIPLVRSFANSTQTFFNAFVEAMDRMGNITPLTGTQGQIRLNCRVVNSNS

[5] = system: pMPC-nAOx (alcohol oxidase encapsulated in a pMPC nanocapsule)
Description: as §1, §2, §3
The activity of native GOx, pMPC-nGOx, native AOx, and pMPC-nAOx were determined with a similar method. Briefly, the initial reaction rates were determined by monitoring the oxidation rates of TMB of GOx and AOx when incubating with the assay solutions with different concentrations of substrates, respectively. For native GOx and pMPC-nGOx, the assay solutions were prepared by mixing TMB (0.5 mM), native HRP (0.001 mg/mL), and different amount of D-gluocose (0.005%, 0.010%, 0.015%, 0.020%, 0.030%, 0.040%, w/v) in 0.1 M phosphate buffer (pH 7.0). For native AOx and pMPC-nAOx, the assay solutions were composed by TMB (0.5 mM), native HRP (0.001 mg/mL), and different amount of ethanol (0.0025%, 0.005%, 0.0075%, 0.010%, 0.020%, 0.030%, w/v) in 0.1 M phosphate buffer (pH 7.0). […]

[6] = system: native alcohol oxidase (AOx)
Procedure: as §1, §3
The activity of native GOx, pMPC-nGOx, native AOx, and pMPC-nAOx were determined with a similar method. Briefly, the initial reaction rates were determined by monitoring the oxidation rates of TMB of GOx and AOx when incubating with the assay solutions with different concentrations of substrates, respectively. For native GOx and pMPC-nGOx, the assay solutions were prepared by mixing TMB (0.5 mM), native HRP (0.001 mg/mL), and different amount of D-gluocose (0.005%, 0.010%, 0.015%, 0.020%, 0.030%, 0.040%, w/v) in 0.1 M phosphate buffer (pH 7.0). For native AOx and pMPC-nAOx, the assay solutions were composed by TMB (0.5 mM), native HRP (0.001 mg/mL), and different amount of ethanol (0.0025%, 0.005%, 0.0075%, 0.010%, 0.020%, 0.030%, w/v) in 0.1 M phosphate buffer (pH 7.0). The measurements were achieved by monitoring the A655 of the reaction solutions during the incubation of 1 μL of native enzyme or pMPC-nProtein (0.5 mg/mL for native GOx and pMPC-nGOx, 1 mg/mL for native AOx and pMPC-nAOx) with their corresponding assay solution.

[7] = system: native uricase (UOx); experiment: Activity assay, decrease of A290 with urate; format: biochemical
Description: (§4) The initial rates were achieved by plotting the absorption at 290 nm versus time and calculating the ΔA290/min from the linear portion of the curve.

[8] = system: pMPC-nUOx (uricase encapsulated in a pMPC nanocapsule); experiment: Activity assay, decrease of A290 with urate; format: biochemical
Description: as §4

## OC[C@H]1OC(O)[C@H](O)[C@@H](O)[C@@H]1O (stereo partly drawn) [D-gluocose]
[1]; native GOx = 100%
  Kcat^app/KM^app relative to native: 100 ± 34.5%
[1]; native GOx, 0.1 M phosphate buffer pH 7.0, 0.5 mM TMB, HRP 0.001 mg/mL
  kcat^app: 87.9 s⁻¹
[1]; native GOx, 0.1 M phosphate buffer pH 7.0, 0.5 mM TMB, HRP 0.001 mg/mL, read-out: KM^app
  Km: 18 ± 6.21 mM
[1]; native GOx, pH 7.0
  Kcat^app/KM^app: 4883 ± 1684 M⁻¹ s⁻¹
[2]; pMPC-nGOx vs native GOx
  Kcat^app/KM^app relative to native: 73.7 ± 31.1%
[2]; pMPC-nGOx, 0.1 M phosphate buffer pH 7.0, 0.5 mM TMB, HRP 0.001 mg/mL
  kcat^app: 77.6 s⁻¹
[2]; pMPC-nGOx, 0.1 M phosphate buffer pH 7.0, 0.5 mM TMB, HRP 0.001 mg/mL, read-out: KM^app
  Km: 21.6 ± 6.7 mM
[2]; pMPC-nGOx, pH 7.0
  Kcat^app/KM^app: 3600 ± 1119 M⁻¹ s⁻¹

## OO [H2O2, hydrogen peroxide]
[3]; pMPC-nHRP vs native HRP
  Kcat^app/KM^app relative to native: 91.1 ± 28.1%
[3]; pMPC-nHRP, 0.1 M acetate buffer pH 5.01, 0.5 mM TMB, Lineweaver-Burk
  kcat^app: 480 s⁻¹
[3]; pMPC-nHRP, pH 5.01, 0.5 mM TMB
  Kcat^app/KM^app: 3.9669e+06 ± 1.1147e+06 M⁻¹ s⁻¹
[3]; read-out: KM^app, pMPC-nHRP, 0.1 M acetate buffer pH 5.01, 0.5 mM TMB, Lineweaver-Burk
  Km: 0.121 ± 0.034 mM
[4]; native HRP = 100%
  Kcat^app/KM^app relative to native: 100 ± 22.7%
[4]; native HRP, 0.1 M acetate buffer pH 5.01, 0.5 mM TMB, Lineweaver-Burk
  kcat^app: 403 s⁻¹

## CCO [ethanol]
[5]; pMPC-nAOx vs native AOx
  Kcat^app/KM^app relative to native: 75.6 ± 28.00%
[5]; pMPC-nAOx, 0.1 M phosphate buffer pH 7.0, 0.5 mM TMB, HRP 0.001 mg/mL
  kcat^app: 23.4 s⁻¹
[5]; pMPC-nAOx, pH 7.0
  Kcat^app/KM^app: 4570 ± 1279 M⁻¹ s⁻¹
[5]; read-out: KM^app, pMPC-nAOx, 0.1 M phosphate buffer pH 7.0, 0.5 mM TMB, HRP 0.001 mg/mL
  Km: 5.12 ± 1.43 mM
[6]; native AOx = 100%
  Kcat^app/KM^app relative to native: 100 ± 23.61%
[6]; native AOx, 0.1 M phosphate buffer pH 7.0, 0.5 mM TMB, HRP 0.001 mg/mL
  kcat^app: 18.8 s⁻¹
[6]; native AOx, pH 7.0
  Kcat^app/KM^app: 6047 ± 1428 M⁻¹ s⁻¹
[6]; read-out: KM^app, native AOx, 0.1 M phosphate buffer pH 7.0, 0.5 mM TMB, HRP 0.001 mg/mL
  Km: 3.11 ± 0.72 mM

## O=c1[nH]c(=O)c2[nH]c(=O)[nH]c2[nH]1 [urate]
[7]; native UOx = 100%
  Kcat^app/KM^app relative to native: 100 ± 7.7%
[7]; native UOx, 0.1 M borate buffer pH 8
  kcat^app: 3.36 s⁻¹
[7]; native UOx, 0.1 M borate buffer pH 8, read-out: KM^app
  Km: 0.0219 ± 0.0017 mM
[7]; native UOx, pH 8
  Kcat^app/KM^app: 153400 ± 11800 M⁻¹ s⁻¹
[8]; pMPC-nUOx vs native UOx
  Kcat^app/KM^app relative to native: 90.4 ± 16.5%
[8]; pMPC-nUOx, 0.1 M borate buffer pH 8
  kcat^app: 3.59 s⁻¹
[8]; pMPC-nUOx, 0.1 M borate buffer pH 8, read-out: KM^app
  Km: 0.0259 ± 0.0043 mM
[8]; pMPC-nUOx, pH 8
  Kcat^app/KM^app: 138600 ± 22900 M⁻¹ s⁻¹

Reference: patent US10722475B2, “Stealth nanocapsules for protein delivery” (THE REGENTS OF THE UNIVERSITY OF CALIFORNIA, priority 2014, dated 2020)
